From patent publication US8927695B2, “Protein-based assays for screening of the IgE-receptor interaction” (The Board of Trustees of the Leland Stanford Junior …, priority 2010, dated 2015)

Assays:
[1] = target: mutant hormone / mutant receptor (hGH/hGHbp) (Homo sapiens, UniProt P01241+P10912, T201G/W122G); details: at a concentration of 100 μM; cited from earlier work
inflammatory response = details: mouse model of acute inflammation; cited from earlier work
LFA-1/ICAM-1 interaction = LFA-1/ICAM-1 interaction (Homo sapiens, UniProt P05107+P20701); details: solid-phase binding assay stated for LFA703; cited from earlier work
transthyretin (TTR) = transthyretin (TTR) (Homo sapiens, UniProt P02766); details: in vitro; cited from earlier work
[2] = target: T1, 488-labeled 367C IgE-Fc bound to FcεRIα (Homo sapiens, UniProt P01854+P12319, K248C); assay: fluorescence assay in competitive inhibitor format; format: binding
T1 construct: starts at amino acid 1 and ends at amino acid 176 of said FcεRIα, using the numbering −25 to 232; made in house; host or cells: IgE-Fc: insect cells (Trichoplusia ni)
Method: Fluorescence Measurement. Samples were monitored by fluorescence using a Synergy 4 Fluorometer (BioTek) in black 96-well Costar fluorescence plates (Corning). Samples were prepared manually by mixing Alexa-488-labelled 367C IgE-Fc in 0.1% Tween-20 and 100 nM BSA, with buffered 50 mM Tris and 50 mM NaCl, pH 8. Fluorescence was measured using an excitation wavelength of 488 nm and emission was monitored at 520 nm. The read-type for typical measurements was Endpoint. All measurements were recorded in duplicate.

FcεRIα = target: T2, FcεRIα (Homo sapiens, UniProt P12319); details: natural IgE-receptor interaction; read-out: affinity of the natural receptor interaction; cited from earlier work
T2 sequence (P12319 26-257): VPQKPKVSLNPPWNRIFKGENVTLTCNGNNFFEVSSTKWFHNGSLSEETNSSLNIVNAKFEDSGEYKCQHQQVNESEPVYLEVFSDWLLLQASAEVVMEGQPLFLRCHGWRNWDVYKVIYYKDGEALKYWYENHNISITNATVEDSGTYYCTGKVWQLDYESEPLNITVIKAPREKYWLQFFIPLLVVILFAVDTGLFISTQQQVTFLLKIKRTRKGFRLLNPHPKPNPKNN

Clc1ccc2nc(C(Cl)(Cl)Cl)[nH]c2c1 [5-Chloro-2-trichloromethyl benzimidazole]
increase in binding affinity of the mutant hormone to the mutant receptor [1]: more than 1000 fold

CC[C@H](C)C(=O)O[C@H]1C[C@@H](C)C=C2C=C[C@H](C)[C@H](CC[C@H]3C[C@@H](O)CC(=O)N3Cc3ccc4c(CO)c(OC)ccc4c3)[C@H]21 [LFA703]
inflammatory response (inflammatory response): suppress the inflammatory response | IC50 (LFA-1/ICAM-1 interaction): 200 nM

O=C(O)c1cccc2c1Oc1c(C(=O)O)cccc1N2c1cccc(C(F)(F)F)c1 [PHENOX, N-(meta-trifluoromethylphenyl)-phenoxazine-4,6-dicarboxylic acid]
inhibition of TTR amyloid fibril formation (transthyretin (TTR)): potent inhibitors

O=C(O)Cc1ccccc1Nc1c(Cl)cccc1Cl [diclofenac]
inhibition of TTR amyloid fibril formation (transthyretin (TTR)): strongly inhibited

O=C(O)c1ccccc1Nc1cccc(C(F)(F)F)c1 [flufenamic acid]
inhibition of TTR amyloid fibril formation (transthyretin (TTR)): potently inhibit

CC(C(=O)O)c1ccc(-c2ccccc2)c(F)c1 (stereo not drawn) [flurbiprofen]
inhibition of TTR amyloid fibril formation (transthyretin (TTR)): strongly inhibited

O=C(O)c1ccccc1Nc1ccccc1C(F)(F)F [o-FLU, ortho-trifluoromethylphenyl anthranilic acid]
inhibition of TTR amyloid fibril formation (transthyretin (TTR)): potent inhibitors

Oc1ccc(C=Cc2cc(O)cc(O)c2)cc1 [resveratrol]
inhibition of TTR amyloid fibril formation (transthyretin (TTR)): strongly inhibited

B1: unlabeled IgE-Fc: unlabeled wild type human IgE-Fc (Cε3-Cε4) used as competitor (protein, listed as Homo sapiens)
chain: ADPCADSNPRGVSAYLSRPSPFDLFIRKSPTITCLVVDLAPSKGTVNLTWSRASGKPVNHSTRKEEKQRNGTLTVTSTLPVGTRDWIEGETYQCRVTHPHLPRALMRSTTKTSGPRAAPEVYAFATPEWPGSRDKRTLACLIQNFMPEDISVQWLHNEVQLPDARHSTTQPRKTKGSGFFVFSRLEVTRAEWEQKDEFICRAVHEAASPSQTVQRAVSVNPGK
modifications: PEPTIDE (1)..(223) Wildtype IgE-Fc (C3-C4)
direct effect on fluorescence of the dye-labeled IgE-Fc ([2]; control in the absence of FcεRIα): no significant effect | fluorescence recovery / competition of receptor binding ([2]; in the presence of FcεRIα): completely competed | Kd (FcεRIα): ~1 nM
